Laboratory results as given in ChEMBL document CHEMBL1201862, “PubChem BioAssay data set” (2004).
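Briefly, cells in 96-well plates were exposed to five compound concentrations for 48 h, and endpoints were estimated by linear interpolation. Here, GI50 denotes the concentration required for 50% inhibition of growth.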 Activity calls are given as the source filed them. No stated cut-off is given here; in the data, active = GI50 up to about 1.1 µM and inactive = higher.

Tests used:
Experiment in all cases: growth of human tumour cells (NCI), 48 h
NCI-H522 = tested on: NCI-H522
NCI-H460 = tested on: NCI-H460
UO-31 = tested on: UO-31
SF-539 = tested on: SF-539
MDA-N = tested on: MDA-N
LOX IMVI = tested on: LOX IMVI
T47D = tested on: T47D
M19-MEL = tested on: M19-MEL
KM12 = tested on: KM12
HCT-116 = tested on: HCT-116
SK-MEL-28 = tested on: SK-MEL-28
RXF 393 = tested on: RXF 393
OVCAR-5 = tested on: OVCAR-5
MOLT-4 = tested on: MOLT-4
SNB-19 = tested on: SNB-19
EKVX = tested on: EKVX
PC-3 = tested on: PC-3
NCI-H226 = tested on: NCI-H226
786-0 = tested on: 786-0
TK-10 = tested on: TK-10

Measured: GI50

Nc1ccn(C2CCC(CO)O2)c(=O)n1 (stereo not given)
inactive: NCI-H522 656 µM | NCI-H460 > 100 µM | UO-31 836 µM | SF-539 > 100 µM | MDA-N > 1000 µM | LOX IMVI > 100 µM | T47D > 1000 µM | M19-MEL > 100 µM | KM12 > 100 µM | HCT-116 > 100 µM | SK-MEL-28 > 100 µM | RXF 393 > 100 µM | OVCAR-5 > 100 µM | MOLT-4 63.8 µM | SNB-19 > 100 µM | EKVX > 100 µM | PC-3 > 1000 µM | NCI-H226 > 93.5 µM | 786-0 > 1000 µM | TK-10 > 1000 µM

NC1=NS(=O)(=O)Nc2nc(-c3ccccc3)c(-c3ccccc3)nc21
inactive: NCI-H522 > 100 µM | NCI-H460 > 100 µM | UO-31 > 100 µM | SF-539 > 100 µM | LOX IMVI > 100 µM | M19-MEL > 100 µM | KM12 > 100 µM | HCT-116 > 100 µM | SK-MEL-28 > 100 µM | RXF 393 > 100 µM | OVCAR-5 > 100 µM | MOLT-4 > 100 µM | SNB-19 > 100 µM | EKVX > 100 µM | NCI-H226 > 100 µM | 786-0 > 100 µM | TK-10 > 100 µM

CCc1nc2c(O)ccc(O)c2nc1C
inactive: NCI-H522 2.56 µM | NCI-H460 19.2 µM | UO-31 19.3 µM | SF-539 17 µM | LOX IMVI 16.2 µM | M19-MEL 7.35 µM | KM12 17 µM | HCT-116 8.38 µM | SK-MEL-28 19.6 µM | RXF 393 11.5 µM | OVCAR-5 19.3 µM | MOLT-4 3.65 µM | SNB-19 18.9 µM | EKVX 17.3 µM | NCI-H226 15.8 µM | 786-0 13.5 µM | TK-10 22.5 µM

O=C1C(Cl)C(c2cc(Br)ccc2O)N1n1cnc2ccccc2c1=O (stereo not given)
inactive: NCI-H522 13.2 µM | NCI-H460 6.62 µM | UO-31 7.4 µM | SF-539 18.5 µM | LOX IMVI 6.64 µM | M19-MEL 10.7 µM | KM12 20.7 µM | HCT-116 5.96 µM | SK-MEL-28 14.1 µM | RXF 393 28.9 µM | OVCAR-5 28.5 µM | MOLT-4 2.75 µM | SNB-19 14.5 µM | EKVX 3.4 µM | NCI-H226 6.87 µM | 786-0 17.3 µM | TK-10 31.8 µM

Cc1cc(NCCCCCCCCNc2cc(C)nc3cc(N)ccc23)c2ccc(N)cc2n1
inactive: NCI-H522 3.78 µM | NCI-H460 15.7 µM | UO-31 > 100 µM | SF-539 17 µM | LOX IMVI 17.1 µM | M19-MEL 15.5 µM | KM12 12.5 µM | SK-MEL-28 19.9 µM | RXF 393 27.7 µM | OVCAR-5 22.5 µM | MOLT-4 > 100 µM | SNB-19 14.1 µM | EKVX 22.2 µM | NCI-H226 24.4 µM | 786-0 18.9 µM | TK-10 44.9 µM

CC(C)(Br)C(=O)C(Br)Br
inactive: NCI-H522 1.67 µM | NCI-H460 18.1 µM | UO-31 17.5 µM | SF-539 > 33.2 µM | MDA-N 5.3 µM | LOX IMVI 4.86 µM | T47D 6.22 µM | M19-MEL 6.01 µM | KM12 16.8 µM | HCT-116 4.26 µM | SK-MEL-28 9.04 µM | RXF 393 3.16 µM | OVCAR-5 16.8 µM | MOLT-4 1.67 µM | SNB-19 19.7 µM | EKVX 13.8 µM | PC-3 5.4 µM | NCI-H226 16.7 µM | 786-0 13.8 µM | TK-10 9.04 µM

O=c1c2cccnc2ncn1CCN1CCCCC1
inactive: NCI-H522 > 100 µM | NCI-H460 > 100 µM | UO-31 > 100 µM | SF-539 > 100 µM | LOX IMVI > 100 µM | M19-MEL > 100 µM | KM12 > 100 µM | HCT-116 > 100 µM | SK-MEL-28 > 100 µM | RXF 393 > 100 µM | OVCAR-5 > 100 µM | MOLT-4 > 100 µM | SNB-19 > 100 µM | EKVX > 100 µM | NCI-H226 > 100 µM | 786-0 > 100 µM | TK-10 > 100 µM

CC(C)(C)c1cc2c3c(c1)C(C(F)(F)F)(C(F)(F)F)O[Te]3(C)OC2(C(F)(F)F)C(F)(F)F
inactive: NCI-H522 > 100 µM | NCI-H460 > 100 µM | UO-31 > 100 µM | SF-539 > 100 µM | LOX IMVI > 100 µM | M19-MEL > 100 µM | KM12 > 100 µM | HCT-116 > 100 µM | SK-MEL-28 > 100 µM | RXF 393 > 100 µM | OVCAR-5 > 100 µM | MOLT-4 > 100 µM | SNB-19 > 100 µM | EKVX > 100 µM | NCI-H226 > 100 µM | 786-0 > 100 µM | TK-10 > 100 µM

COC(=O)/C(C#N)=C1\CCc2ccccc21
inactive: NCI-H522 > 100 µM | NCI-H460 > 100 µM | UO-31 > 100 µM | SF-539 > 100 µM | LOX IMVI > 100 µM | M19-MEL > 100 µM | KM12 > 100 µM | SK-MEL-28 > 100 µM | RXF 393 > 100 µM | OVCAR-5 > 100 µM | MOLT-4 > 100 µM | SNB-19 > 100 µM | EKVX > 100 µM | NCI-H226 > 100 µM | 786-0 > 100 µM | TK-10 > 100 µM

CC(C(=O)c1ccc(O)cc1)C1(O)C(=O)Nc2c(Cl)cc(Cl)cc21 (stereo not given)
inactive: NCI-H522 23.1 µM | NCI-H460 > 86.1 µM | UO-31 > 56.6 µM | SF-539 51.2 µM | LOX IMVI 24.8 µM | M19-MEL 20.6 µM | KM12 > 87.3 µM | HCT-116 43.1 µM | SK-MEL-28 31.1 µM | RXF 393 24.6 µM | OVCAR-5 > 100 µM | MOLT-4 28.9 µM | SNB-19 > 77.6 µM | EKVX 49.3 µM | NCI-H226 19.1 µM | 786-0 48.1 µM | TK-10 > 100 µM

COC(=O)C(=C\Sc1ccccc1)/C=C/C(=O)OC(C)(C)C
inactive: NCI-H522 5.07 µM | NCI-H460 17.7 µM | UO-31 16 µM | SF-539 13.6 µM | LOX IMVI 8.32 µM | M19-MEL 10.8 µM | KM12 11.4 µM | HCT-116 8.47 µM | SK-MEL-28 13.4 µM | RXF 393 2.69 µM | OVCAR-5 15.4 µM | MOLT-4 2.84 µM | SNB-19 4.08 µM | EKVX 10.6 µM | NCI-H226 15.6 µM | 786-0 5.27 µM | TK-10 17.1 µM

C#CCNC(=O)NC(CCCCNC(=O)OCc1ccccc1)C(=O)OCc1ccccc1 (stereo not given)
inactive: NCI-H522 6.64 µM | NCI-H460 93.5 µM | UO-31 21.6 µM | SF-539 38.9 µM | MDA-N 32.9 µM | LOX IMVI 33.7 µM | M19-MEL 11.3 µM | KM12 99.8 µM | HCT-116 > 100 µM | SK-MEL-28 17.7 µM | RXF 393 10.8 µM | OVCAR-5 > 100 µM | MOLT-4 31 µM | SNB-19 > 100 µM | EKVX > 100 µM | PC-3 > 67 µM | NCI-H226 41.6 µM | 786-0 > 95.7 µM | TK-10 37.6 µM

CC1=C(/C=C/C(C)=C/C=C/C(C)=C/C(=O)O)C(C)(C)CCC1 [TRETINOIN]
inactive: NCI-H522 56.9 µM | NCI-H460 48.8 µM | UO-31 > 64.3 µM | SF-539 48.6 µM | MDA-N 45.8 µM | LOX IMVI 31.9 µM | T47D 2.55 µM | M19-MEL > 100 µM | KM12 42.3 µM | HCT-116 48.6 µM | SK-MEL-28 53.8 µM | RXF 393 > 68.1 µM | OVCAR-5 > 68.5 µM | MOLT-4 43.6 µM | SNB-19 47.5 µM | EKVX > 100 µM | PC-3 39.6 µM | NCI-H226 43.4 µM | 786-0 49.9 µM | TK-10 71.8 µM
